Values quoted from earlier work in US11724007B2, “Operating room coating applicator and method” (Ethicon, Inc., priority 2018, dated 2023).

Tested on: S. aureus
Details: measured in a suitable growth medium; described by Bhargava, H. et al, American Journal of Infection Control, June 1996

**Q.** With Oc1cc(Cl)ccc1Oc1ccc(Cl)cc1Cl [triclosan, 2,4,4′-trichloro-2′-hydroxydiphenyl ether] as the molecule, how does the “minimum inhibitory concentration (MIC) against S. aureus” value read?
**A.** 0.01 ppm
